Assay results: patent US8481459B2, “Chemical inhibitors of ethylene biosynthesis” (Academia Sinica, priority 2010, dated 2013)

Tested on: gene expression in etiolated eto1-4 seedlings
Assay: Transcriptional profiling (ATH1 GeneChip microarray) of etiolated eto1-4 seedlings
Assay type: in vivo, Arabidopsis thaliana
Experimental: For chemical treatments, seeds were sown on 0.5×MS agar medium supplemented with 10 μM chemicals (AVG, compounds 9393, 9370, and 7303) or DMSO (as control). Arabidopsis seeds were stratified in the dark at 4° C. for 4 days, then germinated in the dark for 3 days at 22° C. Approximately 2,000 etiolated seedlings of the wild type or eto1-4 were used to collect tissues for preparation of total RNA in each microarray experiment with Arabidopsis ATH1 GeneChip (Affymetrix). Extraction of RNA followed an established protocol (Chang, et al. (1993) Plant Mol. Biol. Rep. 11, 113-117). Total RNA (10 μg) was used to prepare biotinylated cRNA for hybridization to ATH1 GeneChip in the experiments disclosed herein. Experiments were repeated by 2 independent biological duplicates, and candidate genes present in both experiments were selected for further analysis. The MASS method was used for data analysis and normalization by all sample medium. Candidate genes were selected by the following criteria. First, genes with 1.5-fold differential expression between the wild type and eto1-4 were selected as the master gene pool, which was then used for comparison in treatments with AVG and individual exemplary compounds. Data were presented in hierarchical clustering and Venn diagram format. Agilent GeneSpring GX and Bioconductor software were used to analyze the expression profile data. Gene Ontology descriptions were generated by GeneSpring GX and further referred to the TAR GO database. Raw data are available in the GEO database (http://www.ncbi.nlm.nih.gov/geo) with Accession no. GSE20897.
The filtered and normalized expression data set from 22810 probes on the ATH1 Genechip was used for hierarchical clustering of gene expression profiles for comparison between AVG and the exemplary invention compounds in eto1-4. It was identified that 1,446 genes show at least 1.5-fold difference in expression between the WT and eto1-4 and used them as the master gene pool for clustering analysis (FIG. 7A). […] These genes likely contribute to the etiolated phenotype of eto1-4 by responding to elevated endogenous ethylene. To determine whether the exemplary compounds have specific r overlapping functions with AVG to suppress the eto1-4 phenotype, genes that are regulated by individual exemplary invention compounds and AVG for Venn diagram analysis were clustered (FIG. 7B). More than 63% of genes (356/561 for compound 9393; 389/561 for compound 9370; 399/561 for compound 7303; FIG. 7B) with expression associated with AVG were co-regulated by the exemplary invention compounds, which indicates an overlap function in suppression of the ethylene phenotype in eto1-4. […] Next genes co-regulated by all of the exemplary invention compounds and AVG were examined by performing a clustering analysis using the co-regulated genes identified in FIG. 7B: 356 (compound 9393 vs AVG), 389 (compound 9370 vs AVG) and 399 genes (compound 7303 vs AVG). It was uncovered that 276 genes were co-regulated by all of the exemplary invention compounds and AVG (FIG. 7C and Table 2). On the basis of GO descriptions generated by Gene Spring GX and TAIR database, the 276 genes were divided into subgroups related to their biological functions (Table 2). […] In addition, stress- and pathogenesis-related genes were among the co-regulated genes, possibly because ethylene is involved in both biotic and abiotic stresses.
Genes (1446 non-redundant loci) were selected by 1.5-fold differential expression between eto1-4 and WT as the master pool for analysis. These genes were used for comparison between chemical treatments by AVG and the exemplary invention compounds. The finalized 276 genes that are co-regulated by AVG and all of the exemplary invention compounds are shown. Locus ID also present in Nemhauser et al. (Nemhauser, et al. (2006) Cell 126, 467-475).

[1] = of 1446 genes differentially expressed between WT and eto1-4, 10 μM
[2] = ratio eto1-4 treated to eto1-4 (no treatment)

Compound: COc1ccc(C2CC(=O)c3cnc(Nc4ccccc4)nc3C2)cc1 (centres unmarked) [Compound 7303]
- number of genes co-regulated with AVG (of 561 genes associated with AVG, 10 μM): 399 genes
- number of genes regulated (expression reverted close to WT) [1]: 650 genes
- percentage of genes regulated (expression reverted close to WT) [1]: 45.0%
- number of genes regulated specifically, not related to AVG treatment (of all genes regulated by the compound (629, 728, 650), 10 μM): 251 genes
- Signal Fold Change AT1G03457, unknown biological function [2]: 3.04
- Signal Fold Change AT1G03660, unknown biological function [2]: 1.59
- Signal Fold Change AT1G05010 ACC oxidase [2]: 0.30
- Signal Fold Change AT1G05760 jacalin lectin protein [2]: 3.70
- Signal Fold Change AT1G06720 expressed protein [2]: 1.26
- Signal Fold Change AT1G07280, unknown biological function [2]: 0.37
- Signal Fold Change AT1G07560 leucine-rich repeat protein kinase [2]: 1.99
- Signal Fold Change AT1G08650 phosphoenolpyruvate carboxylase kinase [2]: 3.40
- Signal Fold Change AT1G08990 glycogenin glucosyltransferase [2]: 2.60
- Signal Fold Change AT1G09530 phytochrome interacting factor 3 [2]: 0.29
- Signal Fold Change AT1G10760 starch excess protein (SEX1) [2]: 0.43
- Signal Fold Change AT1G13430, response to cytokinin stimulus, sulfotransferase protein [2]: 0.34
- Signal Fold Change AT1G14540 anionic peroxidase [2]: 0.42
- Signal Fold Change AT1G15380 lactoylglutathione lyase [2]: 2.99
- Signal Fold Change AT1G17970, unknown biological function [2]: 2.35
- Signal Fold Change AT1G18880 proton-dependent oligopeptide transport (POT) protein [2]: 2.51
- Signal Fold Change AT1G20190, cell wall organization and biogenesis, expansin (EXP11) [2]: 0.43
- Signal Fold Change AT1G22740 Ras-related protein (RAB7) [2]: 3.52
- Signal Fold Change AT1G23060, unknown biological function [2]: 0.35
- Signal Fold Change AT1G26930, unknown biological function [2]: 0.40
- Signal Fold Change AT1G27380 p21-rho-binding domain-containing protein [2]: 2.14
- Signal Fold Change AT1G29520, unknown biological function [2]: 2.27
- Signal Fold Change AT1G30750, unknown biological function [2]: 2.87
- Signal Fold Change AT1G31710 copper amine oxidase [2]: 5.43
- Signal Fold Change AT1G32410 vacuolar protein sorting 55 protein [2]: 1.75
- Signal Fold Change AT1G32560 late embryogenesis abundant group 1 domain-containing protein [2]: 1.89
- Signal Fold Change AT1G33470, unknown biological function [2]: 2.38
- Signal Fold Change AT1G33790, unknown biological function [2]: 0.21
- Signal Fold Change AT1G34040, unknown biological function [2]: 2.17
- Signal Fold Change AT1G35350, unknown biological function [2]: 4.37
- Signal Fold Change AT1G35612, unknown biological function [2]: 3.19
- Signal Fold Change AT1G42470, unknown biological function [2]: 4.79
- Signal Fold Change AT1G44800, unknown biological function [2]: 2.25
- Signal Fold Change AT1G44830 AP2-containing transcription factor [2]: 0.38
- Signal Fold Change AT1G48480 leucine-rich repeat trans-membrane protein kinase [2]: 3.43
- Signal Fold Change AT1G49660 expressed protein [2]: 0.47
- Signal Fold Change AT1G50560 cytochrome P450 [2]: 2.50
- Signal Fold Change AT1G52830 auxin-responsive protein [2]: 4.43
- Signal Fold Change AT1G56010 transcription activator NAC1 [2]: 2.97
- Signal Fold Change AT1G56020, unknown biological function [2]: 0.49
- Signal Fold Change AT1G58070, unknown biological function [2]: 2.37
- Signal Fold Change AT1G59590, unknown biological function [2]: 3.94
- Signal Fold Change AT1G59740 proton-dependent oligopeptide transport (POT) protein [2]: 0.32
- Signal Fold Change AT1G62290 aspartyl protease protein [2]: 0.38
- Signal Fold Change AT1G62510 lipid transfer protein [2]: 2.20
- Signal Fold Change AT1G62620, unknown biological function [2]: 3.52
- Signal Fold Change AT1G64200 V-ATPase E subunit [2]: 2.73
- Signal Fold Change AT1G65510, unknown biological function [2]: 4.19
- Signal Fold Change AT1G65920, unknown biological function [2]: 0.36
- Signal Fold Change AT1G66230 myb transcription factor (MYB20) [2]: 3.14
- Signal Fold Change AT1G67030 zinc finger (C2H2 type) protein [2]: 10.77
- Signal Fold Change AT1G68230, unknown biological function [2]: 2.59
- Signal Fold Change AT1G68520 zinc finger (B-box type) protein [2]: 1.15
- Signal Fold Change AT1G69570 Dof-type zinc finger-containing protein [2]: 6.31
- Signal Fold Change AT1G70210 cyclin delta-1 [2]: 3.72
- Signal Fold Change AT1G70850 Bet v I allergen protein [2]: 22.18
- Signal Fold Change AT1G70890 major latex protein [2]: 5.05
- Signal Fold Change AT1G71030 myb transcription factor (MYB2) [2]: 8.09
- Signal Fold Change AT1G71740, unknown biological function [2]: 3.04
- Signal Fold Change AT1G72230 plastocyanin like protein [2]: 2.98
- Signal Fold Change AT1G73220 sugar transporter protein [2]: 5.76
- Signal Fold Change AT1G73300 serine carboxypeptidase S10 protein [2]: 1.69
- Signal Fold Change AT1G73310 serine carboxypeptidase S10 protein [2]: 4.07
- Signal Fold Change AT1G73330 protease inhibitor [2]: 31.27
- Signal Fold Change AT1G73590 auxin efflux carrier protein [2]: 2.03
- Signal Fold Change AT1G73640, small GTPase mediated signal transduction, Ras-related GTP-binding protein [2]: 2.12
- Signal Fold Change AT1G73830 bHLH protein [2]: 0.20
- Signal Fold Change AT1G75500, unknown biological function [2]: 3.18
- Signal Fold Change AT1G76220, unknown biological function [2]: 4.28
- Signal Fold Change AT1G76500, photomorphogenesis, DNA-binding protein [2]: 0.38
- Signal Fold Change AT1G76540 cell division control protein [2]: 2.97
- Signal Fold Change AT1G76790, unknown biological function [2]: 3.71
- Signal Fold Change AT1G78240 dehydration-responsive protein [2]: 0.54
- Signal Fold Change AT1G80380 phosphoribulokinase [2]: 2.20
- Signal Fold Change AT2G01910, microtubule nucleation, microtubule associated protein (MAP65/ASE1) protein [2]: 2.92
- Signal Fold Change AT2G02820 myb transcription factor (MYB88) [2]: 4.90
- Signal Fold Change AT2G02850 plantacyanin [2]: 0.15
- Signal Fold Change AT2G16580 auxin-responsive protein [2]: 2.29
- Signal Fold Change AT2G16990, unknown biological function [2]: 3.14
- Signal Fold Change AT2G19590 ACC oxidase [2]: 0.28
- Signal Fold Change AT2G19970, unknown biological function [2]: 3.39
- Signal Fold Change AT2G20080, unknown biological function [2]: 5.75
- Signal Fold Change AT2G20670, unknown biological function [2]: 4.29
- Signal Fold Change AT2G21820, unknown biological function [2]: 1.33
- Signal Fold Change AT2G21880 Ras-related GTP-binding protein [2]: 4.62
- Signal Fold Change AT2G22860 phytosulfokines 2 (PSK2) [2]: 2.10
- Signal Fold Change AT2G24150 expressed protein (response to hormone stimulus) [2]: 1.90
- Signal Fold Change AT2G25900 zinc finger (CCCH-type) protein [2]: 1.73
- Signal Fold Change AT2G26070 expressed protein (response to ethylene stimulus) [2]: 0.28
- Signal Fold Change AT2G26440 pectinesterase protein [2]: 0.27
- Signal Fold Change AT2G26740 epoxide hydrolase [2]: 0.26
- Signal Fold Change AT2G27140 heat shock protein [2]: 2.74
- Signal Fold Change AT2G27370, unknown biological function [2]: 2.51
- Signal Fold Change AT2G28305, unknown biological function [2]: 2.57
- Signal Fold Change AT2G28410, unknown biological function [2]: 2.79
- Signal Fold Change AT2G29340 short-chain dehydrogenase [2]: 0.39
- Signal Fold Change AT2G29440, toxin catabolic process, glutathione S-transferase [2]: 0.26
- Signal Fold Change AT2G30360 CBL-interacting protein kinase 11 (CIPK11) [2]: 3.63
- Signal Fold Change AT2G33380 calcium-binding RD20 protein [2]: 0.22
- Signal Fold Change AT2G33990, unknown biological function [2]: 2.69
- Signal Fold Change AT2G34300, unknown biological function [2]: 0.39
- Signal Fold Change AT2G34500 cytochrome P450 [2]: 8.32
- Signal Fold Change AT2G34510, unknown biological function [2]: 2.21
- Signal Fold Change AT2G34700, unknown biological function [2]: 0.31
- Signal Fold Change AT2G35300 late embryogenesis abundant group 1 domain-containing protein [2]: 2.86
- Signal Fold Change AT2G35710 glycogenin glucosyltransferase [2]: 2.25
- Signal Fold Change AT2G36350 protein kinase [2]: 0.54
- Signal Fold Change AT2G36410, unknown biological function [2]: 3.05
- Signal Fold Change AT2G37130 peroxidase 21 [2]: 2.23
- Signal Fold Change AT2G38760, unknown biological function [2]: 5.36
- Signal Fold Change AT2G38790, unknown biological function [2]: 3.21
- Signal Fold Change AT2G39010 aquaporin [2]: 1.95
- Signal Fold Change AT2G39310, unknown biological function [2]: 3.40
- Signal Fold Change AT2G39980, unknown biological function [2]: 0.25
- Signal Fold Change AT2G40420 amino acid transporter [2]: 3.56
- Signal Fold Change AT2G41090, unknown biological function [2]: 0.11
- Signal Fold Change AT2G41230, unknown biological function [2]: 0.05
- Signal Fold Change AT2G42320, unknown biological function [2]: 0.54
- Signal Fold Change AT2G43050 pectinesterase protein [2]: 3.42
- Signal Fold Change AT2G43535 trypsin inhibitor [2]: 6.32
- Signal Fold Change AT2G44110 seven transmembrane MLO protein [2]: 0.43
- Signal Fold Change AT2G44130 kelch repeat containing F-box protein [2]: 4.62
- Signal Fold Change AT2G47510 fumarate hydratase [2]: 0.48
- Signal Fold Change AT2G47550 pectinesterase protein [2]: 0.49
- Signal Fold Change AT2G48030, unknown biological function [2]: 2.22
- Signal Fold Change AT3G04010 glycosyl hydrolase [2]: 3.80
- Signal Fold Change AT3G05990, signal transduction, phosphodiesterase leucine-rich repeat protein [2]: 2.33
- Signal Fold Change AT3G09020, unknown biological function [2]: 3.42
- Signal Fold Change AT3G09780 protein kinase [2]: 0.40
- Signal Fold Change AT3G10080, unknown biological function [2]: 2.14
- Signal Fold Change AT3G10340 phenylalanine ammonia-lyase [2]: 2.63
- Signal Fold Change AT3G11550, unknown biological function [2]: 2.97
- Signal Fold Change AT3G12030, DNA repair, expressed protein [2]: 2.06
- Signal Fold Change AT3G12500 basic endocexemplary inase [2]: 3.58
- Signal Fold Change AT3G13980, unknown biological function [2]: 6.58
- Signal Fold Change AT3G14370 protein kinase [2]: 0.36
